According to PMC12389534, “Unlocking Therapeutic Potential of Novel Thieno-Oxazepine Hybrids as Multi-Target Inhibitors of AChE/BChE and Evaluation Against Alzheimer’s Disease: In Vivo, In Vitro, Histopathological, and Docking Studies” (Pharmaceuticals, 2025):
Entries after “also recorded” stand apart in the source; their conditions may differ.

Columns and labels:
MDA = experiment: Brain MDA content (thiobarbituric acid method); format: in vivo, rat; design: reduction in MDA brain content: concentration or dose not given beside the values; conditions: AlCl3-induced AD rats; for MDA (nmol/g Tissue): brain tissue, mean ± SE, n = 6
AChE [1] = format: in vivo; design: reduction in AChE levels: concentration or dose not given beside the values; conditions: AlCl3-induced AD rats; for AChE (ng/g Tissue): brain tissue, mean ± SE, n = 6; for reduction in AChE levels: brain
IL-1β = experiment: Brain IL-1β level (ELISA); format: in vivo, rat; design: reduction in IL-1β levels: concentration or dose not given beside the values; conditions: AlCl3-induced AD rats; for IL-β (pg/g Tissue): mean ± SE, n = 6
Procedure: The brain tissues of the rats were removed and rigorously washed in isotonic saline 24 h after they were euthanized following the last behavioral test. For histological investigation, four brains per group were preserved for the whole night in 10% neutral buffered formalin. The remaining six brains were split into two sections each. In order to create a 10% homogenate (w/v), the first component was instantaneously homogenized using an ice-cold solution that included 300 mM sucrose and 50 mM Tris-HCl (pH 7.4). The homogenate was centrifuged at 1800× g for 10 min at 4 °C for biochemical tests, and the supernatant was thereafter kept at −20 °C. The second portion was set aside for use in RT-PCR analysis at −80 °C [94]. […]

[2] = tested on: AlCl3-induced AD rat model; experiment: Y-maze SAP test in AlCl3-induced AD rats; format: in vivo; conditions: for SAP%: mean ± SE, n = 6
Procedure: (§1) All procedures were conducted conforming to the applicable National Institutes of Health standards and regulations for the Care and Use of Laboratory Animals. In this experiment, adult male Dawley rats in excellent condition weighing between 300 and 320 g were used. The animals were acquired from the Nile Company for Pharmaceuticals and Chemical Industries (Cairo, Egypt). They were placed in a controlled laboratory setting with unrestricted access to water, a temperature range of 24 to 26 °C, and 12 h a light–dark cycle. Three rats per cage were housed in polycarbonate cages that were individually packed with paper and encased with stainless steel wire.
One kind of short-term memory that SAP can represent is spatial working memory. Three arms, designated A, B, or C, were employed in a black hardwood Y-maze with a symmetrical triangular core space. Rats were briefly positioned at the edge of one arm and given 8 min to freely navigate around the maze. When the rat’s rear paws were fully inside the arm, the entries were counted. The following formula was used to determine SAP based on the total number of arm entries and alternations: SAP (%) = [number of alternations/(total arm entries − 2)] × 100 [94].

Wnt3a = experiment: Brain Wnt3a level; format: in vivo, rat; conditions: AlCl3-induced AD rats; for Wnt3a (ng/g Tissue): mean ± SE, n = 6
Procedure: (§2) The brain tissues of the rats were removed and rigorously washed in isotonic saline 24 h after they were euthanized following the last behavioral test. For histological investigation, four brains per group were preserved for the whole night in 10% neutral buffered formalin. The remaining six brains were split into two sections each. In order to create a 10% homogenate (w/v), the first component was instantaneously homogenized using an ice-cold solution that included 300 mM sucrose and 50 mM Tris-HCl (pH 7.4). The homogenate was centrifuged at 1800× g for 10 min at 4 °C for biochemical tests, and the supernatant was thereafter kept at −20 °C. The second portion was set aside for use in RT-PCR analysis at −80 °C [94].
(§3) See Supplementary Information.

AChE [3] = target: T1, AChE (Homo sapiens, UniProt P22303); experiment: biochemical; conditions: colorimetric kit, 412 nm
T1 construct: purchased BioVision K197-100
Procedure: All newly created compounds were subjected to an AChE enzyme inhibitory screening. This was performed with the Colorimetric AChE Inhibitor Screening Kit (BioVision Catalog # K197-100). The 96-well assay kit provides a rapid, simple, and reliable way to screen for AChE inhibitors in large quantities. […] A completely transparent 96-well plate with a flat bottom was loaded with 10 µL of test inhibitors that were diluted (20×). […] A measure of 10 μL of diluted AChE was applied to each well that contained compounds, inhibitor control, and solvent control. […] Measures of 25 μL of AChE assay buffer, 5 μL of probe mix, and 10 μL of diluted AChE substrate were mixed to create the reaction mix. The reaction mix was mixed with the compound, enzyme control, and inhibitor control. […] The IC50 was calculated using nonlinear regression analysis using the response–concentration (log) curve.

[4] = tested on: AlCl3-induced AD rat model; experiment: Morris water maze (MWM) test in AlCl3-induced AD rats; format: in vivo; conditions: for Learning (s): escape latency; for Learning (s) / Memory (s): mean ± SE, n = 6; for Memory (s): time spent in target quadrant
Procedure: as §1
Spatial learning and memory were inspected using the MWM test. Tap water was poured into a 150 cm diameter by 60 cm high circular water tank until it reached a depth of 30 cm (25 ± 2 °C). To make the water […], non-toxic white dye was applied. The east, west, north, and south quadrants of the pool were essentially separated into four equal sections. At a specific spot in the middle of one quadrant, an escape platform with a diameter of 10 cm was submerged 2 cm below the water’s surface. The platform stood in the exact same quadrant throughout the testing. The rats’ swimming route was recorded by a video camera situated above the pool. From a designated spot in each quadrant, each rat was submerged in the water with its back turned to the pool wall, and it was then left to swim to the platform. The rats received training sessions every day for three days in a row, with four trials conducted in each session. Before the next trial began, the animals were kept a maximum of 60 s to explore the hidden platform. After that, they were permitted to relax on it for 20 s. The rat was positioned gently on the platform and allowed 20 s to rest if it took longer than 60 s to locate it. The time taken to find the platform, or the escape latency, was documented. In order to do a probing test on the fourth day, the platform was detached away, and the rats were given 60 s to swim liberally. The time spent in the assigned quadrant was counted.

β-catenin = experiment: Brain β-catenin level; format: in vivo, rat; conditions: AlCl3-induced AD rats; for β-Catenin (ng/L): mean ± SE, n = 6
Procedure: as §2, §3

[5] = tested on: brain tissue (CC, ST, FD, SN neurons); experiment: Histopathological examination of brain tissue; format: in vivo, rat; conditions: brain sections, H&E; AlCl3-induced AD rats
Procedure: as §2
Brain tissue samples were stationed in 10% formalin for 24 h, washed with water, and then serially diluted with alcohol to induce dehydration. After being submerged in paraffin, the specimens were cut into segments that were 4 µm thick using a microtome.

NLRP3 = NLRP3 mRNA expression (RT-qPCR); format: in vivo, rat; design: reduction of NLRP3 mRNA expression: concentration or dose not given beside the values; conditions: AlCl3-induced AD rats; for NLRP3: mRNA expression level, mean ± SE, n = 6
Procedure: as §2, §3

BAX = BAX gene expression (RT-qPCR); format: in vivo, rat; conditions: AlCl3-induced AD rats; for BAX: gene expression, mean ± SE, n = 6
Procedure: as §2, §3

BDNF = experiment: Brain BDNF level (ELISA); format: in vivo, rat; conditions: AlCl3-induced AD rats; for BDNF (ng/mL): brain tissue, mean ± SE, n = 6
Procedure: as §2, §3

BAX/Bcl-2 = BAX/Bcl-2 ratio of gene expression; format: in vivo, rat; conditions: AlCl3-induced AD rats
Procedure: as §2, §3

T1 sequence (P22303 32-614): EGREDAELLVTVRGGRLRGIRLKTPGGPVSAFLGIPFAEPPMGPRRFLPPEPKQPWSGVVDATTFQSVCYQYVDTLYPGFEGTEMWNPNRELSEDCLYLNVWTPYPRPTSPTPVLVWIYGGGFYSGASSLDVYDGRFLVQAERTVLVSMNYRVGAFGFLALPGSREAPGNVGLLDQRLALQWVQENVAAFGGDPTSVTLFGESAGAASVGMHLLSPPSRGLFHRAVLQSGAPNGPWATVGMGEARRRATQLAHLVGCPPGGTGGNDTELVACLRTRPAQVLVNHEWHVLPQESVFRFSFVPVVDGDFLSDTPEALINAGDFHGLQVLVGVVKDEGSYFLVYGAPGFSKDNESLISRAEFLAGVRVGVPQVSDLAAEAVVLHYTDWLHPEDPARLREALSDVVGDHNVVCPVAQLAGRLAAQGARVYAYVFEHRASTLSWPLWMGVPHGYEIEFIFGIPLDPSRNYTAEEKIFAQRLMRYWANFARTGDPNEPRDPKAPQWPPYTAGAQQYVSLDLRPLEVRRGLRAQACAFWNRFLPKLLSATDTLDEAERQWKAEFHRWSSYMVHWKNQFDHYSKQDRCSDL

| Structure (SMILES) | reduction in MDA brain content (MDA) | MDA (nmol/g Tissue) (MDA) | AChE (ng/g Tissue) (AChE [1]) | reduction in AChE levels (AChE [1]) | reduction in IL-1β levels (IL-1β) | IL-β (pg/g Tissue) (IL-1β) | SAP% [2] | elevation of Wnt3a levels (Wnt3a) | Wnt3a (ng/g Tissue) (Wnt3a) | IC50 (AChE [3]) | Learning (s) [4] | Memory (s) [4] | elevation of β-catenin levels (β-catenin) | β-Catenin (ng/L) (β-catenin) | histopathological finding in CC, ST, FD and SN (NP = nuclear pyknosis) [5] | reduction of NLRP3 mRNA expression (NLRP3) | NLRP3 (NLRP3) | BAX (BAX) | BDNF (ng/mL) (BDNF) | BAX/Bcl-2 Ratio (BAX/Bcl-2) | also measured |
| --- | --- | --- | --- | --- | --- | --- | --- | --- | --- | --- | --- | --- | --- | --- | --- | --- | --- | --- | --- | --- | --- |
| CCOc1ccc(N2CC(=O)Oc3sc4c(c3C2=O)CCCCC4)cc1 [Compound 14, 4-(4-Ethoxyphenyl)-3,4,7,8,9,10-hexahydro-6H-cyclohepta[4,5]thieno[3,2-f][1,4]oxazepine-2,5-dione] | 59% | 47.6 ± 0.12 ^abc nmol/g Tissue | 19.4 ± 0.39 ^abc ng/g Tissue | 71.2% | 49.3% | 59.92 ± 0.98 ^abc pg/g Tissue | 77.5 ± 2.11 ^abc % | 4 fold | 0.66 ± 0.02 ^abc ng/g Tissue | 0.39 ± 0.01 µM | 21 ± 1.13 ^abc s | 29.50 ± 2 ^abc s | 5.3 fold | 8.4 ± 0.09 ^abc ng/L | moderate NP in CC, FD, and SN, normal histology of neurons in ST; also recorded: significant pyknosis | 63.2% | 3.92 ± 0.04 ^abc | 5.49 ± 0.100 ^abc | 115.8 ± 0.07 ^abc ng/mL | 7.84 | elevation of BDNF levels (BDNF): 2.7 fold |
| CCOC(=O)c1c(OC(=O)CCl)sc2c1CCCCC2 [Compound 4, Ethyl 2-(2-chloroacetoxy)-5,6,7,8-tetrahydro-4H-cyclohepta[b]thiophene-3-carboxylate] | 33.6% | 77.14 ± 0.06 ^abc nmol/g Tissue | 43.89 ± 0.19 ^abc ng/g Tissue | 34.8% | 30% | 82.82 ± 1.1 ^abc pg/g Tissue | 72.67 ± 1.02 ^abc % | 2.8 fold | 0.34 ± 0.01 ^abc ng/g Tissue | 41.2 ± 1.42 µM | 31.5 ± 1.48 ^abc s | 26.67 ± 1.54 ^abc s | 3.9 fold | 6.17 ± 0.07 ^abc ng/L | moderate NP in CC and SN, a moderate number of necrotic neurons in FD, as well as normal histology of ST neurons; also recorded: significant NP in the CC, FD, and SN, whereas the striatal neurons’ histological structures remained normal |  | 6.30 ± 0.09 ^abc | 7.42 ± 0.030 ^abc | 75.75 ± 0.01 ^abc ng/mL | 19.53 | reduction in escape latency [4]: 35.9%; suppression of BAX gene expression (BAX): 23.3% |
| O=C1CN(c2ccccc2)C(=O)c2c(sc3c2CCCCC3)O1 [Compound 11, 4-Phenyl-3,4,7,8,9,10-hexahydro-6H-cyclohepta[4,5]thieno[3,2-f][1,4]oxazepine-2,5-dione] | 68.4% | 36.75 ± 0.09 ^abc nmol/g Tissue | 20.09 ± 0.45 ^abc ng/g Tissue | 70.1% | 42.1% | 68.56 ± 0.54 ^abc pg/g Tissue | 69.67 ± 1.69 ^abc % | 3.9 fold | 0.47 ± 0.01 ^abc ng/g Tissue | 2.67 ± 0.09 µM | 25.17 ± 1.25 ^abc s | 35.17 ± 0.95 ^abc s | 4.8 fold | 7.25 ± 0.04 ^abc ng/L | mild NP in neurons in CC and moderate NP in ST, FD, and SN; also recorded: minor NP in the CC and significant NP in FD, ST, and SN | 49.5% | 5.39 ± 0.11 ^abc | 6.84 ± 0.090 ^abc | 127.3 ± 0.01 ^abc ng/mL | 13.15 | increase in SAP% [2]: 22%; increase in quadrant residence time [4]: 3.5 times; suppression of BAX gene expression (BAX): 29.3%; elevation of BDNF levels (BDNF): 3 fold |
| COc1ccc(N2CC(=O)Oc3sc4c(c3C2=O)CCCCC4)cc1 [Compound 16, 4-(4-Methoxyphenyl)-3,4,7,8,9,10-hexahydro-6H-cyclohepta[4,5]thieno[3,2-f][1,4]oxa-zepine-2,5-dione] | 72.8% | 31.63 ± 0.05 ^abc nmol/g Tissue | 16.83 ± 0.29 ^abc ng/g Tissue | 75% | 55.2% | 53.04 ± 0.61 ^abc pg/g Tissue | 71.67 ± 1.15 ^abc % | 5.5 fold | 0.52 ± 0.01 ^abc ng/g Tissue | 0.76 ± 0.03 µM | 26.83 ± 1.2 ^abc s | 36.00 ± 1.27 ^abc s | 4.6 fold | 7.34 ± 0.12 ^abc ng/L | mild NP in neurons in CC, as well as moderate NP in neurons of ST, FD, and SN; also recorded: minor NP in the CC and significant NP in FD, ST, and SN | 59.5% | 4.32 ± 0.10 ^abc | 6.14 ± 0.090 ^abc | 134.8 ± 0.01 ^abc ng/mL | 9.75 | increase in quadrant residence time [4]: 3.6 times; suppression of BAX gene expression (BAX): 36.5%; elevation of BDNF levels (BDNF): 3.1 fold |
